# Target: T1, human soluble guanylate cyclase alpha 1 and beta 1 subunits (sGC) (Homo sapiens, UniProt Q02108+Q02153)
# T1 construct: expressed in transfected cells; host or cells: Chinese hamster ovary (CHO) cells, stably transfected
# T1 sequence (Q02108 1-690): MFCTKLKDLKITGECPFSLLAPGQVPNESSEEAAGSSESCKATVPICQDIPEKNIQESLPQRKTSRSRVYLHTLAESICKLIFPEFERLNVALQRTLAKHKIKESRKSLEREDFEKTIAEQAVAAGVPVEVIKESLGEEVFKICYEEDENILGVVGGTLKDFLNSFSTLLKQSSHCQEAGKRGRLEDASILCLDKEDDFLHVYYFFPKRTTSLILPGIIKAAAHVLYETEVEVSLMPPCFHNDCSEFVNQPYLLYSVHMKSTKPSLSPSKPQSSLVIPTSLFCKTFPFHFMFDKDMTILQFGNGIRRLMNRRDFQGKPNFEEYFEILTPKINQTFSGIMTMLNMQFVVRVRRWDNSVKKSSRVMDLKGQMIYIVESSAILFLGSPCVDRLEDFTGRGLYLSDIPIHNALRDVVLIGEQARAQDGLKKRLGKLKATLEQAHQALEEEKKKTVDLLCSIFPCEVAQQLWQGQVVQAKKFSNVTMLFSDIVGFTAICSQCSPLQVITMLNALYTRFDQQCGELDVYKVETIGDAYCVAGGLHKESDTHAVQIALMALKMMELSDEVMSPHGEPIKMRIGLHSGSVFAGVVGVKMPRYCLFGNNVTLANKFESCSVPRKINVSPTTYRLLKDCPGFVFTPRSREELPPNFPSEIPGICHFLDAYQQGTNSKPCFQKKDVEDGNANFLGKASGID
# T1 sequence (Q02153 1-619): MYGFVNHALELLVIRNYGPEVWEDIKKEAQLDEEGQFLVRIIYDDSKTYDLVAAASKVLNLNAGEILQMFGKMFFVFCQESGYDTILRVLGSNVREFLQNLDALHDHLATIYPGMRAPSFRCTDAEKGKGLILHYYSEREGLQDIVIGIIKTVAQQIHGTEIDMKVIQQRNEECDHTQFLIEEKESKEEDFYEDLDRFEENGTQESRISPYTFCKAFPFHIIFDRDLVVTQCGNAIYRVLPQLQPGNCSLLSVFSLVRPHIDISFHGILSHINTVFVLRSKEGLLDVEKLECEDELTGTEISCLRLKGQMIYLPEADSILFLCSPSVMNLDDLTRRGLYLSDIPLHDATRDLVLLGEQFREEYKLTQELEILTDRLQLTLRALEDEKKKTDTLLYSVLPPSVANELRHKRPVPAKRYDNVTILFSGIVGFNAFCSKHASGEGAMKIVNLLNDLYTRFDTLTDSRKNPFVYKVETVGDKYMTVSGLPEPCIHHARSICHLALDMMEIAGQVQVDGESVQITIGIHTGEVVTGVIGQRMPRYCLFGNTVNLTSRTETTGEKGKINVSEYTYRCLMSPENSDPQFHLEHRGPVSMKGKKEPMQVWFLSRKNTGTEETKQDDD
# Test: sGC cellular activator assay (cGMP, HTRF)
# Type: cell-based
# Conditions: CHO cells stably expressing human sGC alpha 1/beta 1, preincubated with 40 microM ODQ; cGMP readout; assay run with and without 50% human serum, Table 2 does not say which
# Method: The sGC cellular activator assay is performed in the presence and absence of 50% human serum (HS) using Chinese hamster ovary cells that have been stably transfected to express the human soluble guanylate cyclase alpha 1 and beta 1 subunits (sGC). Cells are preincubated with 40 microM 1H-[1,2,4]oxadiazolo[4,3-a]quinoxalin-1-one (ODQ), an sGC inhibitor, for one h in buffer containing 0.1% bovine serum albumin and 3-isobutyl-1-methylxanthine (IBMX). Concentration response curves are prepared for test compounds in DMSO. An intermediate dilution of the compounds is performed in either buffer containing IBMX or type AB HS containing IBMX. Diluted compounds are added to cells and they are incubated at room temperature for thirty min. cGMP is measured using a CisBio homogeneous time resolved fluorescence kit and the EC50 is calculated for each compound.
# Representative compounds of the present invention were tested for activity the above assay. Preferred compounds have an EC50 of <1,000 nM in the above assay and more preferred compounds have an EC50<200 nM.
row,SMILES,EC50 [nM]
1,CCOc1c(C(=O)O)cnn1-c1cccc(-c2cccc(C)c2OCc2ccc3c(c2C)CCN(C2COC2)CC3)n1 [Compound 175],40
2,CCOc1c(C(=O)O)cnn1-c1cccc(-c2cccc(C)c2OCc2ccc3c(c2C(F)(F)F)CCN(C2CCOCC2)C3)n1 [Compound 165],11
3,CCOc1c(C(=O)O)cnn1-c1cccc(-c2cccc(C)c2OCc2ccc3c(c2C)CCN(CCOCCO)C3)n1 [Compound 168],580
4,COc1c(C(=O)O)cnn1-c1cccc(-c2cccc(C)c2OCc2ccc3c(c2C)CCN([C@@H]2CCCOC2)C3)n1 [Compound 140],15
5,COc1c(C(=O)O)cnn1-c1cccc(-c2cccc(C)c2OCc2ccc3c(c2)CCN([C@H]2CC[C@@]4(CCCO4)CC2)C3)n1 [Compound 103],110
6,COc1c(C(=O)O)cnn1-c1cccc(-c2cccc(C)c2OCc2cc3c(cc2C)CN(C2CCOCC2)CC3)n1 [Compound 121],40
7,CCOc1c(C(=O)O)cnn1-c1cccc(-c2cccc(C)c2OCc2ccc3c(c2C)CCN([C@@H]2CCOC2)C3)n1 [Compound 126],58
8,COc1c(C(=O)O)cnn1-c1cccc(-c2cccc(C)c2OCc2ccc3c(c2)OCCN(C2CCOCC2)C3)n1 [Compound 130],21
9,COc1c(C(=O)O)cnn1-c1cccc(-c2cccc(C)c2OCc2ccc3c(c2C)CCN([C@H]2CCCOC2)C3)n1 [Compound 141],17
10,COc1c(C(=O)O)cnn1-c1cccc(-c2cccc(C)c2OCc2ccc3c(c2)CCN(C(C)C)C3)n1 [Compound 13],180
11,COc1c(C(=O)O)cnn1-c1cccc(-c2cc(C)ccc2OCc2ccc3c(c2C)CCN(C2CCOCC2)C3)n1 [Compound 124],47
12,"COc1c(C(=O)O)cnn1-c1cccc(-c2cccc(C)c2OCc2ccc3c(c2)CCN(CC(F)(F)F)C3)n1 [Compound 11, 5-methoxy-1-(6-{3-methyl-2-[2-(2,2,2-trifluoro-ethyl)-1,2,3,4-tetrahydro-isoquinolin-6-ylmethoxy]-phenyl}-pyridin-2-yl)-1H-pyrazole-4-carboxylic acid]",17
13,COc1c(C(=O)O)cnn1-c1cccc(-c2cccc(C)c2OCc2ccc3c(c2)CCCN(C2CCOCC2)C3)n1 [Compound 100],170
14,CC(C)Oc1c(C(=O)O)cnn1-c1cccc(-c2ccccc2OCc2ccc3c(c2)CCN(C2CCOCC2)C3)n1 [Compound 144],460
15,CCOc1c(C(=O)O)cnn1-c1cccc(-c2cccc(C)c2OCc2ccc3c(c2C)CCN(C2COC(C)(C)OC2)C3)n1 [Compound 155],86
16,COCCOc1c(C(=O)O)cnn1-c1cccc(-c2cccc(C)c2OCc2ccc3c(c2C)CCN(C2CCCOC2)C3)n1 (stereo not shown) [Compound 149],44
17,Cc1cccc(-c2cccc(-n3ncc(C(=O)O)c3OC(C)C)n2)c1OCc1ccc2c(c1C)CCN(C1CCOCC1)C2 [Compound 104],31
18,CCOc1c(C(=O)O)cnn1-c1cccc(-c2cccc(C)c2OCc2ccc3c(c2)CCN([C@@H]2CCOC2)C3)n1 [Compound 112],110
19,CCOc1c(C(=O)O)cnn1-c1cccc(-c2cccc(C)c2OCc2ccc3c(c2C)CCN(C2COC2)C3)n1 [Compound 164],32
20,CCOc1c(C(=O)O)cnn1-c1cccc(-c2cccc(C)c2OCc2ccc3c(c2)OCCN(C2CCOCC2)C3)n1 [Compound 131],410
21,CCOc1c(C(=O)O)cnn1-c1cccc(-c2cccc(C)c2OCc2ccc3c(c2C)CCN(CC2CCOCC2)C3)n1 [Compound 172],50
22,CC[C@H](C)Oc1c(C(=O)O)cnn1-c1cccc(-c2cccc(C)c2OCc2ccc3c(c2C)CCN(C2CCOCC2)C3)n1 [Compound 136],81
23,COc1c(C(=O)O)cnn1-c1cccc(-c2cccc(C)c2OCc2ccc3c(c2C)CCN(C[C@@H]2COCCO2)C3)n1 [Compound 139],8.4
24,Cc1cccc(-c2cccc(-n3ncc(C(=O)O)c3OC(C)C)n2)c1OCc1ccc2c(c1)CCN([C@@H]1CCCOC1)C2 [Compound 113],24
25,Cc1cccc(-c2cccc(-n3ncc(C(=O)O)c3OC(C)C)n2)c1OCc1ccc2c(c1)CCN([C@H]1CCCOC1)C2 [Compound 115],68
26,CCOc1c(C(=O)O)cnn1-c1cccc(-c2cccc(C)c2OCc2ccc3c(c2C)CCN(C[C@@H]2CCCOC2)C3)n1 [Compound 152],14
27,CCOc1c(C(=O)O)cnn1-c1cccc(-c2cccc(C)c2OCc2ccc3c(c2C)CCN([C@@H]2CCCOC2)C3)n1 [Compound 128],15
28,CCOc1c(C(=O)O)cnn1-c1cccc(-c2cccc(C)c2OCc2ccc3c(c2)CCN([C@H]2CCOC2)C3)n1 [Compound 110],45
29,COc1c(C(=O)O)cnn1-c1cccc(-c2cccc(C)c2OCc2cc(C)c3c(c2)CCN(C2CCOCC2)C3)n1 [Compound 171],16

# Continued, values first:
row,EC50 [nM],SMILES
1,130,COCCOc1c(C(=O)O)cnn1-c1cccc(-c2cccc(C)c2OCc2ccc3c(c2C)CCN(C2CCOCC2)C3)n1 [Compound 151]
2,54,CC[C@H](C)Oc1c(C(=O)O)cnn1-c1cccc(-c2cccc(C)c2OCc2ccc3c(c2C)CCN(C2CCCOC2)C3)n1 (stereo partly shown) [Compound 135]
3,40,CCOc1c(C(=O)O)cnn1-c1cccc(-c2cccc(C)c2OCc2ccc3c(c2C)CCN(C2CCOCC2)C3)n1 [Compound 114]
4,59,CCOc1c(C(=O)O)cnn1-c1cccc(-c2cccc(C)c2OCc2ccc3c(c2C)CCN(C[C@H]2COC(C)(C)O2)C3)n1 [Compound 179]
5,13,CCOc1c(C(=O)O)cnn1-c1cccc(-c2cccc(C)c2OCc2cc(C)c3c(c2)CCN(C2CCOCC2)C3)n1 [Compound 169]
6,13,CCOc1c(C(=O)O)cnn1-c1cccc(-c2cccc(C)c2OCc2cc(C)c3c(c2)CCN(C2CCCOC2)C3)n1 (stereo not shown) [Compound 173]
7,110,"CCOc1c(C(=O)O)cnn1-c1cccc(-c2cccc(C)c2OCc2ccc3c(c2)CCN(CC2CCCO2)C3)n1 (stereo not shown) [Compound 101, 5-ethoxy-1-(6-{3-methyl-2-[2-(tetrahydro-furan-2-ylmethyl)-1,2,3,4-tetrahydro-isoquinolin-6-ylmethoxy]-phenyl}-pyridin-2-yl)-1H-pyrazole-4-carboxylic acid]"
8,26,CCOc1c(C(=O)O)cnn1-c1cccc(-c2cccc(C)c2OCc2ccc3c(c2C)CCN(C[C@H]2CCCOC2)C3)n1 [Compound 153]
9,26,COc1c(C(=O)O)cnn1-c1cccc(-c2cccc(C)c2OCc2ccc3c(c2)CCN(CC2(C)COC2)C3)n1 [Compound 12]
10,14,CCOc1c(C(=O)O)cnn1-c1cccc(-c2cccc(C)c2OCc2cc(C)c3c(c2)CCN(C2COC2)C3)n1 [Compound 174]
11,42,COc1c(C(=O)O)cnn1-c1cccc(-c2cccc(C)c2OCc2ccc3c(c2)CCN(C2COC2)C3)n1 [Compound 8]
12,450,"CCOc1c(C(=O)O)cnn1-c1cccc(-c2cccc(C)c2OCc2ccc3c(c2C)CCN(C(=O)C2CCOCC2)C3)n1 [Compound 147, 5-Ethoxy-1-(6-{3-methyl-2-[5-methyl-2-(tetrahydro-pyran-4-carbonyl)-1,2,3,4-tetrahydro-isoquinolin-6-ylmethoxy]-phenyl}-pyridin-2-yl)-1H-pyrazole-4-carboxylic acid]"
13,91,COCCOc1c(C(=O)O)cnn1-c1cccc(-c2cccc(C)c2OCc2ccc3c(c2C)CCN(C2CCOC2)C3)n1 (stereo not shown) [Compound 150]
14,13,COc1c(C(=O)O)cnn1-c1cccc(-c2cccc(C)c2OCc2cc(C)c3c(c2C)CN(C2CCOCC2)C3)n1 [Compound 145]
